Measurements published in patent publication US11873298B2, “Compounds and uses thereof” (JANSSEN PHARMACEUTICA NV, priority 2017, dated 2024).

Columns and labels:
Assay type in all cases: cell-based
[1] = molecular target: T1, SCD1 (Homo sapiens, UniProt O00767); experiment: Growth inhibition of humanized yeast strain expressing SCD1 as sole desaturase; details: humanized yeast strain expressing SCD1
T1 construct: host or cells: S. cerevisiae ole1Δ strain (W303 pdr1Δ pdr3Δ background), plasmid pRS316 with TDH3 promoter and CYC1 terminator
T1 sequence (O00767 1-359): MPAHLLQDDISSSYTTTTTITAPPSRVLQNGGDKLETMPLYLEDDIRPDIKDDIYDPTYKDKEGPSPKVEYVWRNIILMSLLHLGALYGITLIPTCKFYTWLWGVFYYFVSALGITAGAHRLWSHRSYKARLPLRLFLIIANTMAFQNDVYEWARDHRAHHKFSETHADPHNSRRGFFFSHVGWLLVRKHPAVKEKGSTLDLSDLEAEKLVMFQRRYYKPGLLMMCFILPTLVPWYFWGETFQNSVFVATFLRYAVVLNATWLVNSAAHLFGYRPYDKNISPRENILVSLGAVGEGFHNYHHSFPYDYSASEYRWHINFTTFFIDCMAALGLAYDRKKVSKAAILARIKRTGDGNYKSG
Procedure, shortened: (§1)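 OD600 growth read-out. ole1Δ yeast, pdr1Δ pdr3Δ, with Ole1/SCD1/SCD5 on a plasmid; SX-Ura media throughout; 2× cell density 0.02 in CSM-Galactose; DMSO compound dilutions; humidified 30° C.; Ole1 stopped at 24 h, SCD1/SCD5 at 40 h.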

[2] = molecular target: T2, SCD5 (Homo sapiens, UniProt Q86SK9); experiment: Growth inhibition of humanized yeast strain expressing SCD5 as sole desaturase; details: humanized yeast strain expressing SCD5
T2 construct: host or cells: S. cerevisiae ole1Δ strain (W303 pdr1Δ pdr3Δ background), plasmid pRS316 with TDH3 promoter and CYC1 terminator
T2 sequence (Q86SK9 1-330): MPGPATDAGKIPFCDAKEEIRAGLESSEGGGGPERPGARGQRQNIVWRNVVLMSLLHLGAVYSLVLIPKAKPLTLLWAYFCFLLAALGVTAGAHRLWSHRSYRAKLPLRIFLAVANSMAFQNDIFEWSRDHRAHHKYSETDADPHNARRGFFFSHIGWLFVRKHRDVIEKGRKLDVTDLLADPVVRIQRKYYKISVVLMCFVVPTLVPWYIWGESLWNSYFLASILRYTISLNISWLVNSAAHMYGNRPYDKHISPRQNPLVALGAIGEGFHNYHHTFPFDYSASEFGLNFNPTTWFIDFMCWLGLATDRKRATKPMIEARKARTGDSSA
Procedure, shortened: as §1

[3] = molecular target: T3, Ole1 (Saccharomyces cerevisiae, UniProt P21147); experiment: Growth inhibition of yeast strain expressing Ole1 as sole desaturase; details: yeast strain expressing Ole1 as sole desaturase
T3 construct: expressed in transfected cells; host or cells: S. cerevisiae ole1Δ strain (W303 pdr1Δ pdr3Δ background), plasmid pRS316 with TDH3 promoter and CYC1 terminator
T3 sequence (P21147 1-510): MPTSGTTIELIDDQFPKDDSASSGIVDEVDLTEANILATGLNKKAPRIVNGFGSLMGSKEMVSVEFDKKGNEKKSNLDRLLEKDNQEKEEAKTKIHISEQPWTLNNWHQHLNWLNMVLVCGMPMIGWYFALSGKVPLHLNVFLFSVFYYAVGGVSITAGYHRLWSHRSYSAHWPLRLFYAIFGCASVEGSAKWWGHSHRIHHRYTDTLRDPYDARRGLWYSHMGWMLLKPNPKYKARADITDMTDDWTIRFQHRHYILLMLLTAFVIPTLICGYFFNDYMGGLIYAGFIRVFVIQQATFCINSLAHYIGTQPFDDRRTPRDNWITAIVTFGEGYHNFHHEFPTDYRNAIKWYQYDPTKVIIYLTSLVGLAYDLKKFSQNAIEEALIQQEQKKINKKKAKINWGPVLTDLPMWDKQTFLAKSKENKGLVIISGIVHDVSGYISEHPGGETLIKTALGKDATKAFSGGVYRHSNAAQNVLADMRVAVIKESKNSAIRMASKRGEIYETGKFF
Procedure, shortened: as §1

Row | Structure (SMILES) | SCD1 % Max Inhibition [1] | IC50 [2] | SCD5 % Max Inhibition [2] | IC50 [3] | OLE1 % Max Inhibition [3] | IC50 [1]
1 | CCc1c2ccc(-c3noc(C4CCN(C(=O)CNC(=O)c5ccccc5)CC4)n3)cc2nn1C [Compound 321] | 71.6% | > 45 µM | 74.1% | > 45 µM | 14.0% | –
2 | Cc1nn(C)c2cc(-c3noc(C4CCN(C(=O)CNC(=O)c5cccc(C#N)c5)CC4)n3)ccc12 [Compound 322] | 73.6% | > 45 µM | 29.8% | > 45 µM | 9.0% | –
3 | O=C(C1CC(=O)N(c2cccc(Cl)c2)C1)N1CCC(c2nc(N3CCOCC3)no2)CC1 (stereo not shown) [Compound 323] | 76.1% | > 45 µM | 73.5% | > 45 µM | 89.1% | > 45 µM
4 | C[C@H]1CN(c2noc(C3CCN(C(=O)C4CC(=O)N(c5cccc(Cl)c5)C4)CC3)n2)C[C@H](C)O1 (stereo partly shown) [Compound 324] | 74.9% | > 45 µM | 68.7% | > 45 µM | 90.5% | > 45 µM
5 | O=C(C1CC(=O)N(c2cccc(Cl)c2)C1)N1CCC(c2nc(N3CCC4(CC3)COC4)no2)CC1 (stereo not shown) [Compound 325] | 73.7% | > 45 µM | 67.2% | > 45 µM | 79.2% | > 45 µM
6 | Cc1nn(C)c2cc(-c3nc(C4CCN(C(=O)CNC(=O)c5ccccc5)CC4)no3)ccc12 [Compound 326] | 77.1% | > 45 µM | 26.5% | > 45 µM | 7.5% | –
7 | Cc1nn(C)c2cc(-c3noc(N4CCN(C(=O)N5CCCCC5)CC4)n3)ccc12 [Compound 327] | 66.5% | > 45 µM | 68.0% | > 45 µM | 74.8% | –
8 | Cc1nn(C)c2cc(-c3noc(C4CCN(C(=O)CNC(=O)c5cc(Cl)ccc5C(F)(F)F)CC4)n3)ccc12 [Compound 328] | 86.6% | > 45 µM | 80.5% | > 45 µM | 21.9% | –
9 | Cc1nn(C)c2cc(-c3noc(C4CCN(C(=O)N[C@@H]5C[C@@H]5c5ccccc5)CC4)n3)ccc12 [Compound 329] | 16.2% | > 45 µM | 13.4% | > 45 µM | 12.5% | –
10 | Cc1nn(C)c2cc(-c3nc(C4CCN(C(=O)C5CC(=O)N(c6cccc(C#N)c6)C5)CC4)no3)ccc12 (stereo not shown) [Compound 331] | 41.9% | > 45 µM | 24.9% | > 45 µM | 13.7% | > 45 µM
11 | N#Cc1cccc(N2CC(C(=O)N3CCC(c4nc(N5CC6(COC6)C5)no4)CC3)CC2=O)c1 (stereo not shown) [Compound 332] | 59.7% | > 45 µM | 31.5% | > 45 µM | 77.0% | > 45 µM
12 | Cc1ccc(N2CC(C(=O)N3CCC(c4nc(N5CC6(COC6)C5)no4)CC3)CC2=O)nc1 (stereo not shown) [Compound 333] | 55.6% | > 45 µM | 62.3% | > 45 µM | 81.2% | > 45 µM
13 | O=C(c1ccccc1)N1CCC(c2nc(N3CC4(COC4)C3)no2)CC1 [Compound 334] | 49.3% | > 45 µM | 66.7% | > 45 µM | 84.4% | –
14 | O=C(c1ccccc1)N1CCC(c2nc(N3CC4(CCCO4)C3)no2)CC1 [Compound 335] | 54.0% | > 45 µM | 61.2% | > 45 µM | 81.5% | –
15 | CC(C)c1ccc(C(=O)N2CCC(c3nc(N4CC5(CCCO5)C4)no3)CC2)cc1 [Compound 336] | 56.9% | > 45 µM | 74.1% | > 45 µM | 86.7% | –
16 | CC(C)c1ccc(C(=O)N2CCC(c3nc(N4CC5(COC5)C4)no3)CC2)cc1 [Compound 337] | 49.6% | > 45 µM | 61.6% | > 45 µM | 86.4% | –
17 | CC(C)n1cc(-c2noc(C3CCN(C(=O)C4CC(=O)N(c5cccc(Cl)c5)C4)CC3)n2)cn1 (stereo not shown) [Compound 338] | 60.0% | > 45 µM | 76.3% | > 45 µM | 85.2% | > 45 µM
18 | O=C(C1CC(=O)N(c2cccc(Cl)c2)C1)N1CCC(c2nc(N3CC4(COC4)C3)no2)CC1 (stereo not shown) [Compound 339] | 56.1% | > 45 µM | 75.4% | > 45 µM | 85.7% | > 45 µM
19 | O=C(C1CC(=O)N(c2cccc(Cl)c2)C1)N1CCC(c2nc(-c3cnn(C4COC4)c3)no2)CC1 (stereo not shown) [Compound 340] | 55.0% | > 45 µM | 65.9% | > 45 µM | 88.9% | > 45 µM
20 | Cc1nn(C)c2cc(-c3nc([C@@H]4C[C@H]5CC[C@@H](C4)N5C(=O)OC(C)(C)C)no3)ccc12 [Compound 341] | 45.2% | > 45 µM | 45.6% | > 45 µM | 91.7% | > 45 µM
21 | CCn1nc2cc(-c3noc(C4CCN(C(=O)OC(C)(C)C)CC4)n3)ccc2c1C [Compound 342] | 75.9% | > 45 µM | 43.5% | > 45 µM | 80.9% | > 45 µM
22 | Cc1nn(C(C)C)c2cc(-c3noc(C4CCN(C(=O)OC(C)(C)C)CC4)n3)ccc12 [Compound 343] | 59.1% | > 45 µM | 23.2% | > 45 µM | 84.7% | –
23 | COc1ccc(-c2noc(CCNC(=O)CNC(=O)c3ccccc3)n2)cc1OC [Compound 484] | 75.84% | > 45 µM | 81.46% | > 45 µM | 92.09% | –
24 | O=C(CNC(=O)c1ccccc1)NCCc1nc(-c2ccccc2)no1 [Compound 485] | 62.60% | 30 µM | 65.42% | > 45 µM | 75.19% | –
25 | COc1ccc(-c2noc(CCNC(=O)COc3cc(O)c4c(c3)OC(C)(C)CC4=O)n2)cc1OC [Compound 486] | 76.95% | > 45 µM | 72.76% | > 45 µM | 103.51% | –
26 | CC1(C)CC(=O)c2c(O)cc(OCC(=O)NCCc3nc(-c4ccccc4)no3)cc2O1 [Compound 487] | 83.76% | 40.2 µM | 70.73% | > 45 µM | 103.20% | –
27 | COc1ccc(-c2noc(C3CCNCC3)n2)cc1OC [Compound 488] | 75.87% | > 45 µM | 72.82% | > 45 µM | 90.53% | –
28 | COc1cccc(-c2noc(C3CC(=O)N(c4ccc(C)c(C)c4)C3)n2)c1 (stereo not shown) [Compound 489] | 68.84% | 41.1 µM | 61.11% | > 45 µM | 94.30% | –
